Test results published in ChEMBL document CHEMBL3885881, “DrugMatrix”.

Species: Rattus norvegicus
Assay: DrugMatrix - Regimen: Daily Repeat
Format: toxicity, organism-based, Sprague-Dawley
Design: regimen Daily Repeat, gender Male, age 6-8 weeks
Settings: in vivo, po, route oral GAVAGE, vehicle .5 % CMC; for ABSOLUTE BASOPHIL / ABSOLUTE EOSINOPHIL / ABSOLUTE LYMPHOCYTE / ABSOLUTE MONOCYTE / ABSOLUTE SEGMENTED NEUTROPHIL / BASOPHIL / EOSINOPHIL / ERYTHROCYTE COUNT / HEMATOCRIT / HEMOGLOBIN / LEUKOCYTE COUNT / LYMPHOCYTE / MEAN CORPUSCULAR HEMOGLOBIN / MEAN CORPUSCULAR HEMOGLOBIN CONCENTRATION / MONOCYTE / NEUTROPHIL / NUCLEATED RED BLOOD CELLS / PLATELET COUNT: tissue Blood; for ALANINE AMINOTRANSFERASE / ALBUMIN / ALKALINE PHOSPHATASE / ASPARTATE AMINOTRANSFERASE / BLOOD UREA NITROGEN / CARBON DIOXIDE / CHLORIDE / CHOLESTEROL / CREATINE PHOSPHOKINASE / CREATININE / GLUCOSE / LACTATE DEHYDROGENASE / LIPASE / PHOSPHORUS / POTASSIUM / SODIUM / TOTAL BILIRUBIN / TOTAL PROTEIN / URIC ACID: tissue Plasma
[1] = 3 mg/kg, 120 h, dose level Low, time 5 day
[2] = 2000 mg/kg, 72 h, dose level High, time 3 day
[3] = 2000 mg/kg, 120 h, dose level High, time 5 day

## COc1cc2nc(N3CCN(C(=O)c4ccco4)CC3)nc(N)c2cc1OC [PRAZOSIN]
[1]
  ABSOLUTE BASOPHIL: 0 CELLS/uL
  ABSOLUTE EOSINOPHIL: 228.67 CELLS/uL
  ABSOLUTE LYMPHOCYTE: 11545.33 CELLS/uL
  ABSOLUTE MONOCYTE: 136 CELLS/uL
  ABSOLUTE SEGMENTED NEUTROPHIL: 1690 CELLS/uL
  BASOPHIL: 0%
  EOSINOPHIL: 1.67%
  ERYTHROCYTE COUNT: 5.54 x10E6/uL
  HEMATOCRIT: 34.63%
  HEMOGLOBIN: 13.5 G/DL
  LEUKOCYTE COUNT: 13.6 x10E3/uL
  LYMPHOCYTE: 85.33%
  MEAN CORPUSCULAR HEMOGLOBIN: 24.47 pg
  MEAN CORPUSCULAR HEMOGLOBIN CONCENTRATION: 39.03 G/DL
  MONOCYTE: 1%
  NEUTROPHIL: 12%
  NUCLEATED RED BLOOD CELLS: 0 /100WBC
  PLATELET COUNT: 1245 x10E3/uL
  ALANINE AMINOTRANSFERASE: 57.33 u/L
  ALBUMIN: 4.23 G/DL
  ALKALINE PHOSPHATASE: 336.33 u/L
  ASPARTATE AMINOTRANSFERASE: 106.67 u/L
  BLOOD UREA NITROGEN: 16.67 mg/dL
  CARBON DIOXIDE: 21.67 mmol/L
  CHLORIDE: 104.33 MEQ/L
  CHOLESTEROL: 73 mg/dL
  CREATINE PHOSPHOKINASE: 877.67 u/L
  CREATININE: 0.19 mg/dL
  GLUCOSE: 131.67 mg/dL
  LACTATE DEHYDROGENASE: 643.67 u/L
  LIPASE: 9.67 u/L
  PHOSPHORUS: 11.7 mg/dL
  POTASSIUM: 6.1 MEQ/L
  SODIUM: 144.23 MEQ/L
  TOTAL BILIRUBIN: 0.23 mg/dL
  TOTAL PROTEIN: 6.13 G/DL
  URIC ACID: 1.5 mg/dL
[2]
  ABSOLUTE BASOPHIL: 0 CELLS/uL
  ABSOLUTE EOSINOPHIL: 93.33 CELLS/uL
  ABSOLUTE LYMPHOCYTE: 7483.33 CELLS/uL
  ABSOLUTE MONOCYTE: 100 CELLS/uL
  ABSOLUTE SEGMENTED NEUTROPHIL: 856.67 CELLS/uL
  BASOPHIL: 0%
  EOSINOPHIL: 1%
  ERYTHROCYTE COUNT: 5.18 x10E6/uL
  HEMATOCRIT: 33.2%
  HEMOGLOBIN: 13 G/DL
  LEUKOCYTE COUNT: 8.53 x10E3/uL
  LYMPHOCYTE: 87.33%
  MEAN CORPUSCULAR HEMOGLOBIN: 25.1 pg
  MEAN CORPUSCULAR HEMOGLOBIN CONCENTRATION: 39.17 G/DL
  MONOCYTE: 1.33%
  NEUTROPHIL: 10.33%
  NUCLEATED RED BLOOD CELLS: 0 /100WBC
  PLATELET COUNT: 1248.33 x10E3/uL
  ALANINE AMINOTRANSFERASE: 55.33 u/L
  ALBUMIN: 3.8 G/DL
  ALKALINE PHOSPHATASE: 290.33 u/L
  ASPARTATE AMINOTRANSFERASE: 131.67 u/L
  BLOOD UREA NITROGEN: 18.33 mg/dL
  CARBON DIOXIDE: 24 mmol/L
  CHLORIDE: 105 MEQ/L
  CHOLESTEROL: 68.33 mg/dL
  CREATINE PHOSPHOKINASE: 1224.33 u/L
  CREATININE: 0.19 mg/dL
  GLUCOSE: 153 mg/dL
  LACTATE DEHYDROGENASE: 177.67 u/L
  LIPASE: 9.67 u/L
  PHOSPHORUS: 10.87 mg/dL
  POTASSIUM: 5.14 MEQ/L
  SODIUM: 144.9 MEQ/L
  TOTAL BILIRUBIN: 0.17 mg/dL
  TOTAL PROTEIN: 5.37 G/DL
  URIC ACID: 1.17 mg/dL
[3]
  ABSOLUTE BASOPHIL: 0 CELLS/uL
  ABSOLUTE EOSINOPHIL: 0 CELLS/uL
  ABSOLUTE LYMPHOCYTE: 9169.67 CELLS/uL
  ABSOLUTE MONOCYTE: 0 CELLS/uL
  ABSOLUTE SEGMENTED NEUTROPHIL: 630.33 CELLS/uL
  BASOPHIL: 0%
  EOSINOPHIL: 0%
  ERYTHROCYTE COUNT: 5.58 x10E6/uL
  HEMATOCRIT: 34%
  HEMOGLOBIN: 13.3 G/DL
  LEUKOCYTE COUNT: 9.8 x10E3/uL
  LYMPHOCYTE: 93.33%
  MEAN CORPUSCULAR HEMOGLOBIN: 23.83 pg
  MEAN CORPUSCULAR HEMOGLOBIN CONCENTRATION: 39.13 G/DL
  MONOCYTE: 0%
  NEUTROPHIL: 6.67%
  NUCLEATED RED BLOOD CELLS: 0 /100WBC
  PLATELET COUNT: 1205.67 x10E3/uL
  ALANINE AMINOTRANSFERASE: 63.33 u/L
  ALBUMIN: 3.8 G/DL
  ALKALINE PHOSPHATASE: 286.33 u/L
  ASPARTATE AMINOTRANSFERASE: 139.33 u/L
  BLOOD UREA NITROGEN: 16 mg/dL
  CARBON DIOXIDE: 21.33 mmol/L
  CHLORIDE: 104.67 MEQ/L
  CHOLESTEROL: 64.67 mg/dL
  CREATINE PHOSPHOKINASE: 1202.67 u/L
  CREATININE: 0.19 mg/dL
  GLUCOSE: 152 mg/dL
  LACTATE DEHYDROGENASE: 204 u/L
  LIPASE: 9 u/L
  PHOSPHORUS: 10.4 mg/dL
  POTASSIUM: 5.65 MEQ/L
  SODIUM: 146.07 MEQ/L
  TOTAL BILIRUBIN: 0.2 mg/dL
  TOTAL PROTEIN: 5.3 G/DL
  URIC ACID: 0.73 mg/dL
